# Reference: patent US12492163B2, “9H-fluorene derivatives or their pharmaceutically acceptable salts” (priority 2020, dated 2025)
# Key:
# [1] = molecular target: human plasma butyrylcholinesterase (hBuChE) (Homo sapiens (Human), UniProt P06276); experiment: Ellman's test, inhibition of human plasma butyrylcholinesterase; format: biochemical
# In short: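 Modified Ellman assay: compound preincubated 5 min with enzyme and DTNB in 0.1 M phosphate buffer pH 8.0 at 25° C (eqBuChE) or 36° C (hBuChE), then butyrylthiocholine added; absorbance change at 412 nm read after 5 min. Screening at 10 μM (eqBuChE) or 1 μM (hBuChE); IC50 by non-linear regression, triplicates.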
# [2] = Pharmacokinetic parameters in plasma and brain of mice; format: in vivo
# Method: The research was carried out at the Department of Toxicology and Military Pharmacy, Faculty of Military Health Sciences in Hradec Kralove, Defense University in Brno in the Czech Republic, at the Biomedical Research Center and at the Department of Clinical Biochemistry of the University Hospital Hradec Kralove in the Czech Republic. All procedures were carried out under the supervision of the Ethics Committee of the Faculty of Military Health Sciences (No. 20/19; MO 215611/2019-684800). Male and female ICR-CD1 strain of domestic mice (Mus musculus) (body weight approx. 20-25 g) were used in the research. The animals were kept in standard, appropriately sized cages, divided into groups of a maximum of 8 animals. The animals in the test groups were administered the test compound intraperitoneally (doses in the acute toxicity study: 10, 20, 40 and 60 mg/kg, dose in the study of pharmacokinetic parameters 10 mg/kg). Control groups received 1% Tween 80.
# After administration of compound JT-3 at the MTD dose (10 mg/kg), animals were subjected to deep terminal sedation at 0, 3, 5, 10, 20, 30, 45, 60, 90, 120, 240 and 360 minutes after dosing (six animals per time interval; n=6) and their blood was drawn by cardiac puncture into heparinized tubes. Samples were centrifuged (3000×g, 10 minutes, 10° C.). Plasma was stored at −80° C. until analyzed by HPLC. Blood in the cerebral vessels would interfere with the actual concentration levels in the brain tissue, therefore the animals were perfused transcardially with physiological saline (0.9% NaCl) for 5 minutes (10 mL/min). After perfusion, the skull was opened and the brain was carefully removed and stored at −80° C. until analyzed by HPLC.
# Quantitative analyzes of JT-3 in plasma and brain were performed by HPLC. The method has been fully validated for plasma and partially validated for brain homogenate according to the EMA and FDA guidelines for the validation of bioanalytical methods [Research, C, Anonymous].
# C57BL/6J mice = experiment: Barnes maze test (scopolamine); format: in vivo, Mus musculus
# Method: The research was conducted at the Department of Pharmacodynamics, Faculty of Pharmacy, Jagiellonian University in Krakow. All procedures were approved by the 1st and 2nd Local Ethics Committee for Animal Experiments in Krakow (consent no. 53/2017 and 250/2019) and were performed in accordance with the applicable European Union regulation (86/609/EEC). Males of two different strains of domestic mice (Mus musculus) were used in the study: Albino Swiss CD-1 (body weight approx. 20-24 g, age approx. 6 weeks) and C57BL/6J mice (body weight approx. 18-22 g, age approx. 6 weeks). The CD-1 strain was used for the passive avoidance, spontaneous mobility and rotating rod tests, while the C57BL/6J mice were used for the Morris water maze and the Barnes' maze. The animals were kept in standard, appropriately sized cages, divided into groups with a maximum of 10 animals. The animals in the study groups in the learning phase were intraperitoneally administered the test compound 1 h before the start of the experiments (doses in the preliminary test, i.e. in the passive avoidance test: 10, 30 and 60 mg/kg), and 30 minutes later, 1 mg/kg of scopolamine subcutaneously. Two control groups were used in the tests to assess the procognitive activity of JT-3—one of them received saline and the other saline and scopolamine.
# The test is used to study spatial (hippocampal-dependent) memory. […] Barnes' maze has 18 escape holes (escape points) evenly spaced on the outer edges of the circular platform, and only one of them leads to so-called escape box, where the mouse can hide. For the first four days (acquisition phase), the mouse was placed in the center of the maze in the starting chamber, the light was turned on, then the chamber was raised and time was started. The number of errors was also counted, i.e. how many holes the mouse approached before approaching the right hole for the first time, and the total number of errors until it entered the escape box. […] Each mouse was subjected to four trials a day.
# On the fifth day, which is the recall phase (without administration of compounds), the box was removed from the escape hole and the total errors, the number of errors made up to the first approach of the mouse to the hole where the escape box was previously found and the latency to the first approach of the mouse were counted for 90 seconds to that hole were counted. The number of approaches to this hole and the time the mouse spent on it were also counted. On the twelfth day—“proper test” (without administration of compounds), the effect of the compound on long-term memory was assessed. The experiment was as in the recall phase; the same parameters were measured. Between the fifth and twelfth days, the animals were kept in home cages.
# Chain of human plasma butyrylcholinesterase (hBuChE) (P06276 29-602): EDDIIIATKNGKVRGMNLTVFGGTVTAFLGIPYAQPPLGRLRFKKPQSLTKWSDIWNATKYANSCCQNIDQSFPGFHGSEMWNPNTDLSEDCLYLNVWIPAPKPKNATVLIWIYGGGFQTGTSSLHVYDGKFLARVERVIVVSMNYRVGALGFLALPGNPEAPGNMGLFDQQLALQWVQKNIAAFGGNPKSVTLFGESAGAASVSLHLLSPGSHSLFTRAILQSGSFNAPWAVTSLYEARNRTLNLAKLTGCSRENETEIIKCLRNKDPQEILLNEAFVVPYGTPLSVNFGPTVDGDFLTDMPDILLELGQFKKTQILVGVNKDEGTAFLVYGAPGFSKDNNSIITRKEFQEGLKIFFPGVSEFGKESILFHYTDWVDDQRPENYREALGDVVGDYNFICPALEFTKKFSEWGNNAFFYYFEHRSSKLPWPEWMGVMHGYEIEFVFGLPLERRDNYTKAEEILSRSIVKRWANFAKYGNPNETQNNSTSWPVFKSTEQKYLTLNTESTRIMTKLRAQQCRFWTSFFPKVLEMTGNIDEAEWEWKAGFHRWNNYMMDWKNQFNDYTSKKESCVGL
smiles,measurement,setting,value
"O[C@H](CNCC1CC1)[C@H](Cc1ccccc1)NC1c2ccccc2-c2ccccc21 [JT-3, (2R,3S)-3-((9H-fluoren-9-yl)amino)-1-((cyclopropylmethyl)amino)-4-phenylbutan-2-ol]",IC50,[1],207 nM
same,Vz,"[2]; both, ICR-CD1, mouse, in vivo, ip, 10 mg/kg",40.93 ± 4.95 L/kg
same,Tmax,"[2]; brain, mice, 10 mg/kg i.p.",0.9167 ± 0.113 h
same,time of maximum concentration after administration,"[2]; mice, 10 mg/kg i.p.",60 min
same,penetration into the brain,"[2]; mice, 10 mg/kg i.p., higher concentrations in the CNS than in plasma",Very good penetration
same,Half-life,"[2]; plasma, elimination phase, mice, 10 mg/kg i.p.",2.6907 ± 0.2375 h
same,Cmax,"[2]; plasma, mice, 10 mg/kg i.p.",430.09 ± 57.94 ng/mL
same,MRT,"[2]; plasma, mice, 10 mg/kg i.p.",3.6183 ± 0.2942 h
same,Tmax,"[2]; plasma, mice, 10 mg/kg i.p.",0.3888 ± 0.0828 h
same,λz (terminal phase rate constant),"[2]; plasma, mice, 10 mg/kg i.p.",0.0045 ± 0.0004 min⁻¹
same,Cmax,"[2]; sexes, ICR-CD1, mouse, in vivo, ip, 10 mg/kg",833 ± 62.3 ng/g
same,"number of errors made before finding the escape site, acquisition phase","C57BL/6J mice; 10 mg/kg i.p., days 1-4",no statistically significant differences
same,"latency to find the escape site, acquisition phase vs scopolamine control","C57BL/6J mice; 10 mg/kg i.p., fourth day of the test, p<0.05",Statistically significant differences
same,recall phase activity,"C57BL/6J mice; fifth day, 10 mg/kg i.p. on days 1-4",not active
same,number of errors made to find the escape zone vs scopolamine control,"C57BL/6J mice; twelfth day, 10 mg/kg i.p. on days 1-4, p<0.0001",the reduction in errors was also statistically significant
same,latency to find the escape zone vs scopolamine control,"C57BL/6J mice; twelfth day, 10 mg/kg i.p. on days 1-4, p<0.05",the reduction in latency was also statistically significant
